≈ marks a conversion by molar mass, not a printed value.
Columns and labels:
[1] = system: Normal Human Epidermal Keratinocytes (NHEK); assay: Proliferation assay vs Normal Human Epidermal Keratinocytes (NHEK growth inhibition); assay type: cell-based; conditions: Dulbecco's modified Eagle's medium, 10% fetal calf serum, 37° C., 5% CO2, Giemsa, 650 nm, read-out: ED50 NHEK
Protocol: In these experiments, NHEK's were cultured in Dulbecco's modified Eagle's medium with 10% fetal calf serum at 37° C., 5% CO2. Each well of a 96 well plate was seeded with 2000 cells in 200 μl of each drug dilution in duplicate. A plate was stopped and fixed for each time point, stained with Giemsa and then read in a Titertek plate reader at 650 nm, and the absorbances were calibrated with known cell numbers on control plates. NHEK's were obtained from Clonetics Corporation at the secondary stage.

[2] = system: nucleotide biosynthesis in normal human epidermal keratinocyte cells; assay: inhibition of nucleotide biosynthesis in normal human epidermal keratinocyte cells in vitro; assay type: cell-based; design: dose or concentration left out as unconfirmed
Text: It has been known that it is the hyperproliferation of these cells in humans which causes psoriasis.

[3] = cited from earlier work; for side effects: psoriasis treatment; for clearing lesions: psoriasis, experimental use as chemotherapeutic agents; for effectiveness in treating psoriasis: inhibitors of purine or pyrimidine nucleotide biosynthesis

SMILES	IC50 [1] [µg/mL]	side effects [3]	effectiveness in treating psoriasis [3]	further results
NC(=O)c1nnn(Cc2cc(Cl)c(Cc3ccc(Cl)c4ccccc34)c(Cl)c2)c1N [Cl, Cl, CH2, α-Naphth-4-Cl, 5-Amino-l-[4-[(4-chloro-l-naphthalene)methyl]-3,5dichlorobenzyl]-1,2,3-triazole-4-carboxamide]	0.3 (≈ 0.651 µM)			
NC(=O)c1nnn(Cc2cc(Cl)c(C(=O)c3cccc4ccccc34)c(Cl)c2)c1N [Cl, Cl, CO, α-Naphth, 5-Amino-l-[4-(l-naphthoyl)-3,5-dichlorobenzyl]-l,2,3-triazole-4-carboxamide]	0.3 (≈ 0.681 µM)			
NC(=O)c1nnn(Cc2cc(Cl)c(C(=O)c3ccc4ccccc4c3)c(Cl)c2)c1N [Cl, Cl, CO, β-Naphth, 5-Amino-1-[4-(2-naphthoyl)-3,5-dichlorobenzyl]-1,2,3-triazole-4-carboxamide]	1 (≈ 2.27 µM)			
NC(=O)c1nnn(Cc2cc(Cl)c(Oc3ccc(Cl)c4ccccc34)c(Cl)c2)c1N [Cl, Cl, O, α-Naphth-4-Cl, 5-Amino-l-[4-[(4-chloro-l-naphthalene)oxy]-3,5dichlorobenzyl]-1,2,3-triazole-4-carboxamide]	0.3 (≈ 0.648 µM)			
NC(=O)c1nnn(Cc2cc(Cl)c(C(=O)c3ccc(Cl)c4ccccc34)c(Cl)c2)c1N [Compound A, 5-amino-l-(4-(4-chloronaphthoyl)-3,5-dichlorobenzyl)-1,2,3-triazole-4-carboxamide]	0.08 (≈ 0.169 µM)			efficacy in inhibiting nucleotide biosynthesis [2]: inhibiting nucleotide biosynthesis
COc1c(C)c2c(c(O)c1C/C=C(\C)CCC(=O)O)C(=O)OC2 [Mycophenolic acid]		unacceptable side effects		effect on psoriasis ([3]; mycophenolic acid given orally): controls psoriasis by causing remission; clearing lesions [3]: success in clearing lesions
O=C(O)C[C@H](NC(=O)CP(=O)(O)O)C(=O)O [N-phosphonacetyl-L-aspartate]		unacceptable side effects due to toxicity	effective in treating the disease	
NC(=O)c1nnn(Cc2cc(Cl)c(C(=O)c3ccc(Cl)cc3)c(Cl)c2)c1N [Reference compound]	0.5 to 1 (≈ 1.18 to 2.35 µM)			
O=c1[nH]cc(F)c(=O)[nH]1 [fluorouracil]		unacceptable side effects due to toxicity	effective in treating the disease	
CN(Cc1cnc2nc(N)nc(N)c2n1)c1ccc(C(=O)N[C@@H](CCC(=O)O)C(=O)O)cc1 [methotrexate]		unacceptable side effects due to toxicity	effective in treating the disease	
Nc1nc2nc[nH]c2c(=S)[nH]1 [thioguanine]		unacceptable side effects due to toxicity	effective in treating the disease	clearing lesions [3]: success in clearing lesions

Source: patent US4923885A, “5-amino-1-(4-naphthoylbenzyl)-1,2,3-triazole-4-carboxamides and analogs as antiproliferative agents” (Merck & Co., Inc., priority 1988, dated 1990)
